Consider four compounds from US20220378816A1, “2-BENZYLIDENE HYDRAZINOADENOSINE COMPOUNDS HAVING A2A ADENOSINE RECEPTOR AGONISTIC ACTIVITY” (ACADEMY OF MILITARY MEDICAL SCIENCES, priority 2019, published 2022).

Read-outs that look alike come from different tables or passages of the source.

For data set [1], the target named is human adenosine receptor A2A (Homo sapiens, UniProt P29274). Put plainly: Adenosine receptor A2A cAMP test (LANCE Ultra cAMP, hADORA2A-HEK293 cells). As to conditions: for hA2AAR agonist function: cAMP test; for EC50: stimulating production of cyclic AMP, hADORA2A-HEK293 cells. The format is cell-based. An excerpt:
Experimental reagents and consumables: DMEM/F12, G418, Penicillin-Streptomycin, Versene Solution, HEPES, Hank's Buffered Saline Solution, PBS (pH 7.4, 1×, sterile), FBS, BSA Stabilizer 7.5%, Rolipram, NECA were separately purchased from Gibico, Hyclone and Sigma. LANCE® Ultra cAMP kit (Eu-cAMP tracer, Ulight-anti-cAMP reagent, cAMP detection buffer) and hADORA2A-HEK293 cells were purchased from PerkinElmer Research Products (Boston, Mass.). All other reagents were of analytical grade and obtained from commercial sources. 384-well polypropylene microplate and 384-well solid white plate were purchased from Labcyte and Corning, respectively.
The cells stably expressing human adenosine receptor A2A (hADORA2A-HEK293 cells) were cultured in DMEM/F12 medium containing 10% FBS, 1×Penicillin-Streptomycin and 400 μg/ml G418 in a 37° C. and 5% CO2 environment. Before the experiment, the cells were digested with Versene solution, and the cells were collected by centrifugation at 200 g and room temperature for 5 minutes, and finally resuspended with assay buffer (Hank's buffered saline solution, containing 5 mM HEPES, 0.1% BSA stabilizer and 10 μM Rolipram, pH 7.4). The TECAN automated liquid handling workstation was used to dilute the compound in a 384-well polypropylene microplate with DMSO to 11 concentration points in a 3-fold gradient to prepare the compound source plate, in which the 11 concentration points of the compound were 10 mM, 3.33 mM, 1.11 mM., 0.3 7mM, 0.1 2 mM, 0.041 mM, 0.013 mM, 4.57×10^−3 mM, 1.52×10^−3 mM, 5×10^−4 mM and 1.7×10^−4 mM. The Echo Acoustic Liquid Handler (Labcyte) was used to transfer the test compound from the compound source plate to an assay plate, in which the transfer volume of the compound was 10 nl/well. The hADORA2A-HEK293 cell suspension was diluted with assay buffer to 30,000 cells/ml, and the cell suspension was transferred to the assay plate at a volume of 10 μl/well (300 cells/well). The assay plate was centrifuged at 150 g for 1 minute and pre-incubated at room temperature for 30 minutes. The Eu-cAMP tracer working solution (Eu-cAMP tracer 40 μl, cAMP detection buffer 1.96 ml) (5 μl/well) was added to the assay plate, and then the Ulight-anti-cAMP working solution (13 μl of Ulight-anti-cAMP reagent and 1.95 ml of cAMP detection buffer) (5 µl/well) was added to the assay plate. The assay plate was rotated at 150 g for 30 seconds and incubated at room temperature for 30 minutes. The EnVision multimode plate reader (PerkinElmer) was used determine the level of cyclic adenosine monophosphate in the final solution (λex=320 nm, λem=665 nm & 615 nm). The EC50 (nM) value of the compound interacting with the A2A adenosine receptor to stimulate the production of cyclic adenosine monophosphate was calculated and the A2A receptor agonist titer of the compound was expressed as the EC50 (nM) value.

Data set [2] concerns the target T1, (human) A2A adenosine receptors (Homo sapiens, UniProt P29274).
T1 construct: purchased PerkinElmer Research Products (Boston, Mass.); host or cells: HEK-293
Put plainly: Radioligand binding test ([3H]CGS21680 displacement, hA2A HEK-293 cell membranes). Particulars: for Ki: read-out: Ki (inhibition constant). The method, then: Cell membranes stably transfected with (human) A2A adenosine receptors were prepared in HEK-293 cells. The cell membranes were obtained from PerkinElmer Research Products (Boston, Mass.).
The A2A adenosine receptors used were all expressed in the cell membranes. […] (final 25 nM) was added to the diluted cell membrane, and mixed well. 50 μL of the prepared dilution solution of cell membrane was transferred to the 384-well Opti-plate containing compound and incubated at 25° C. for 90 minutes. 100 μL of 0.5% Polyethyleneimine solution (PEI) was added to […]-96 GF/B filter plate, and soaked for 90 minutes at 4° C., then 500 μL of washing buffer/well (50 mM Tris-HCl pH 7.4, 154 mM NaCl) was transferred with Cell Harvester to wash the […]-96 GF/B filter plate twice. The mixed system in the Opti-plate was transferred to the washed […]-96 GF/B filter plate, 500 μL of washing buffer/well (50 mM Tris-HCl pH 7.4, 154 mM NaCl) was used to wash the […]-96 GF/B filter plate 9 times. Incubation was performed in 37° C. incubator for 3 minutes. 40 μL of ULTIMA GOLD scintillation solution (Perkin Elmer, Cat #77-16061) was added to each well, CPM (count per minute) value was read by a MicroBeta liquid scintillation counter (PerkinElmer).

Data set [3] concerns blood-brain barrier. As to the kind of experiment: Animal experiment of blood-brain barrier disruption (FITC-Dextran in brain of SD rats). The format is in vivo. As for the experimental part:
Fluorescein-labeled dextran FITC-Dextran (CAS: 60842-46-8) with molecular weight of 10,000 MW was purchased from TCI (Shanghai) Development Co., Ltd.; PBS solution and experimental animal SD rats were obtained from commercial sources.
FITC-Dextran solutions with six concentration gradients ([…], 10 μg/ml) were prepared with PBS, and standard curve of FITC-Dextran concentration was made by using microplate reader (λex=490 nm, λem=520 nm). Additionally, 10 mg/ml FITC-Dextran solution was prepared, Compound 5 was added to PBS solution to prepare 1 mg/ml solution. 1 ml of 10 mg/ml FITC-Dextran solution and 1 ml of 1 mg/ml Compound 5 in PBS solution were taken and mixed to prepare administration solvent. 1 ml of 10mg/ml FITC-Dextran solution and 1 ml of PBS solution were taken and mixed to prepare blank control solution. 6 SD rats were injected with 2 ml of the administration solvent via tail vein, respectively, while another 6 SD rats were injected with 2 ml of the blank control solution via tail vein. […] The solution to be tested was subjected to fluorescence detection by using the microplate reader (λex=490 nm, λem=520 nm).
The measured fluorescence value by the microplate reader was converted into the corresponding FITC-Dextran average concentration according to the obtained standard curve of FITC-Dextran concentration.

Setting [4] is: calculated from IC50 by Cheng and Prusoff equation, [S] 25 nM, Km […] nM.

T1 sequence (P29274 whole entry): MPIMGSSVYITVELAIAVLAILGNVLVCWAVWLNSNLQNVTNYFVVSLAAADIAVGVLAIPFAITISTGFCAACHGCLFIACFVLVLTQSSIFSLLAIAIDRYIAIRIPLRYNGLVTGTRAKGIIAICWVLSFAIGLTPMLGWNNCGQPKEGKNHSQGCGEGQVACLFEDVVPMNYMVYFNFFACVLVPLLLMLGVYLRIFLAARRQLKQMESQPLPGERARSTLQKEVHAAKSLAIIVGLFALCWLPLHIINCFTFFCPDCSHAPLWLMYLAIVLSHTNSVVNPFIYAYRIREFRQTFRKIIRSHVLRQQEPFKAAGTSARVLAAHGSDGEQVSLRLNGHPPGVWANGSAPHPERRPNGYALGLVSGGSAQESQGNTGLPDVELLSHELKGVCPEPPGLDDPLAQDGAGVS
Sequence of human adenosine receptor A2A (P29274 whole entry): as above

For `Nc1nc(N/N=C/c2ccc(OCc3ccccc3)c(OCc3ccccc3)c2)nc2c1ncn2[C@@H]1O[C@H](CO)[C@@H](O)[C@H]1O` [Compound 2, (2R,3R,4S,5R)-2-{6-amino-2-{2-[(E)-3,4-bis(benzyloxy)benzylidene]hydrazino}-9H-purin-9-yl}-5-(hydroxymethyl)tetrahydrofuran-3,4-diol], the melting point came out at 220 °C. Besides, in data set [1], the “hA2AAR agonist function” value is on record as “shown as hA2AAR agonists” and the concentration for a half-maximal effect (EC50) was 0.64 nM. In addition, the IC50 in data set [2] is 3.9 nM. For the same compound, the Ki in data set [2] (setting [4]) is 1.8 nM.

Compound `Nc1nc(N/N=C/c2ccc(OCc3ccc(F)cc3)cc2)nc2c1ncn2[C@@H]1O[C@H](CO)[C@@H](O)[C@H]1O` [Compound 5, (2R,3R,4S,5R)-2-{6-amino-2-{2-{(E)-4-[(4-fluorobenzyl)oxy]benzylidene}hydrazino}-9H-purin-9-yl}-5-(hydroxymethyl)tetrahydrofuran-3,4-diol] showed a melting point of 144 °C. For the same compound, the “opening of the blood-brain barrier” value in data set [3] (FITC-Dextran co-injected) was “could open the blood-brain barrier”. Besides, the “FITC-Dextran concentration in brain” value in data set [3] (tail vein injection with FITC-Dextran (10,000 MW), brain taken after 30 minutes, average) was 0.11 µg/mL. Besides, in data set [1], the “hA2AAR agonist function” value is given as “shown as hA2AAR agonists” and the EC50 stood at 4.1 nM. Besides, in data set [2], the IC50 is 11.7 nM. Further, the inhibition constant (Ki) in data set [2] (setting [4]) is 5.5 nM.

For the compound `CCN(CC)c1ccc(/C=N/Nc2nc(N)c3ncn([C@@H]4O[C@H](CO)[C@@H](O)[C@H]4O)c3n2)cc1` [Compound 15, (2R,3R,4S,5R)-2-{6-amino-2-{2-[(E)-4-(diethylamino)benzylidene]hydrazino}-9H-purin-9-yl}-5-(hydroxymethyl)tetrahydrofuran-3,4-diol], the melting point is 164 °C. Moreover, in data set [1], the “hA2AAR agonist function” value is recorded as “shown as hA2AAR agonists” and the EC50 turned out to be 17.9 nM. Besides, in data set [2], the 50% inhibitory concentration (IC50) was found to be 13.7 nM and the inhibitory constant (Ki) is 6.4 nM.

Compound `N#Cc1ccc(/C=N/Nc2nc(N)c3ncn([C@@H]4O[C@H](CO)C(O)C4O)c3n2)cc1` (stereo partly drawn) [Compound 20] showed a melting point of 276 °C. This compound also had a concentration for a half-maximal effect (EC50) in data set [1] of 15.3 nM. In data set [2], the IC50 was 18.1 nM and the Ki was 8.5 nM.

What is called melting point is the temperature, or range, at which the solid turns liquid. As usually defined, the EC50 is the midpoint of the concentration-response curve. A higher EC50 goes with a need for much substance. What is called IC50 is the point on the concentration scale where inhibition reaches its midpoint. Read a high IC50 as weaker potency in that assay. The Ki is a measure of affinity in units of concentration, obtained from inhibition or displacement.
